Like-named read-outs stand apart in the source and are kept apart here.
What was measured:
[1] = biological target: T1, human A1 AR (Homo sapiens, UniProt P30542); assay: Radioligand binding, displacement of [3H]-CCPA at hA1 AR in CHO cells; conditions: displacement of specific [3H]-CCPA binding, n = 3–6, mean ± SEM
T1 construct: expressed in transfected cells; host or cells: CHO cells
T1 sequence (P30542 1-326): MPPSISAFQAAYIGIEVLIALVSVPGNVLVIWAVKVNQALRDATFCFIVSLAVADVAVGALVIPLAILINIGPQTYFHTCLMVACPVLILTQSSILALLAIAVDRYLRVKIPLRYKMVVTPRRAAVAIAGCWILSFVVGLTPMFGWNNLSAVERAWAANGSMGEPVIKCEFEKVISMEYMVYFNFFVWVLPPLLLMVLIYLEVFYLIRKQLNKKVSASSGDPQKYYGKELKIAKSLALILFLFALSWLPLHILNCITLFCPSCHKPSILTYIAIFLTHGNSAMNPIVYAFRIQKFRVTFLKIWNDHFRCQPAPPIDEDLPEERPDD
Procedure: (§2) CHO cells, stably expressing hARs, were grown adherently and maintained in Dulbecco’s modified Eagle’s medium (DMEM) with nutrient mixture F12 supplemented with 10% fetal bovine serum (FBS), penicillin (100 µg/mL), streptomycin (100 µg/mL), sodium pyruvate (1 mM), and geneticin (0.1 mg/mL).
(§3) Briefly, cells were homogenized in cold lysis buffer (5 mM Tris HCl, 2 mM EDTA, pH 7.4), centrifuged at low speed spin for 10 min, and subsequently, the supernatant was spun at 37,000 rpm. Membrane pellet was resuspended in the specific buffer and stored at −80 °C.

[2] = biological target: T2, human A2A AR (Homo sapiens, UniProt P29274); assay: Radioligand binding, displacement of [3H]-NECA at hA2A AR in CHO cells;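 further: competition binding on membranes from CHO cells stably transfected with human A2A receptor, binding curves fitted by nonlinear regression in GraphPad Prism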
T2 construct: expressed in transfected cells; host or cells: CHO cells
Procedure: as §2, §3

[3] = biological target: T3, hA3 AR (Homo sapiens, UniProt P0DMS8); assay: Radioligand binding, displacement of [3H]-HEMADO at hA3 AR in CHO cells; conditions: displacement of specific [3H]-HEMADO binding, mean ± SEM
T3 construct: expressed in transfected cells; host or cells: CHO cells
T3 sequence (P0DMS8 1-318): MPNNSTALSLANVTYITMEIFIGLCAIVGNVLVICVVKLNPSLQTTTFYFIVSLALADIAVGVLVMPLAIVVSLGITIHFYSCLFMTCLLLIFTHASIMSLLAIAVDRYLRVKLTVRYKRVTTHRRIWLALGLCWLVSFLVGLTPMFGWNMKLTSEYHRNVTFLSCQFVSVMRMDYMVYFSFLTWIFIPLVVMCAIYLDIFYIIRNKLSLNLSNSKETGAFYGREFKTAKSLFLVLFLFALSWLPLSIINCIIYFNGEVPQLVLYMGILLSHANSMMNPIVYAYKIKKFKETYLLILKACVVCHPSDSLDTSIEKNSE
Procedure: as §2, §3

[4] = biological target: T4, hA2B AR (Homo sapiens, UniProt P29275); assay: Inhibition of NECA-stimulated adenylyl cyclase activity (cAMP) in CHO cells expressing hA2B AR; format: cell-based; conditions: mean ± SEM
T4 construct: expressed in transfected cells; host or cells: CHO cells
T4 sequence (P29275 1-332): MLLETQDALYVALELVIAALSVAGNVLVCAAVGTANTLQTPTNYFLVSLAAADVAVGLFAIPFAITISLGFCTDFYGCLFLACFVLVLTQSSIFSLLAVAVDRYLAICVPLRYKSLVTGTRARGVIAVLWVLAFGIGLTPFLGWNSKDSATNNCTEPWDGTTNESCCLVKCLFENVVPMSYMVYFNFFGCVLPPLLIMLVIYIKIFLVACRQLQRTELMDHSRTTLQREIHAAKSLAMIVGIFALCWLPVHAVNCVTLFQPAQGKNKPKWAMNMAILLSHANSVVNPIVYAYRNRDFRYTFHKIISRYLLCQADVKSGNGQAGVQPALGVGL
Procedure: Compounds 1–19 were evaluated for their binding affinity at hA1, hA2A, and hA3 ARs, stably transfected in Chinese hamster ovary (CHO) cells. […].
The binding affinity of the novel compounds was evaluated using radioligand competition experiments in CHO cells stably transfected with hA1 AR, hA2A AR, and hA3 AR subtypes. […]; The potency at hA2B AR, expressed on CHO cells, was determined by inhibition of NECA-stimulated adenylyl cyclase activity. […]
(§1) Binding data and concentration–response curves were fitted by a nonlinear regression with the Prism program (GraphPAD Prism 7 Software, San Diego, CA, USA). Each concentration was tested 3–5 times in duplicate and the Ki or IC50 (the concentration of antagonists that produces 50% inhibition of the agonist effect) values are given as the mean ± standard error (S.E.).

[5] = biological target: T5, hA2A AR (Homo sapiens, UniProt P29274); assay: Inhibition of NECA-induced increase of cAMP in CHO cells expressing hA2A AR (GloSensor cAMP assay); format: cell-based; conditions: inhibition of NECA-stimulated adenylyl cyclase activity, mean ± standard error
T5 construct: expressed in transfected cells; host or cells: CHO cells
Procedure: Compound 18 was also tested to evaluate its antagonist behavior at the hA1 AR by assessing its ability to counteract NECA-induced decrease of cAMP accumulation.
The intrinsic activity of understudy compounds was evaluated through the GloSensor cAMP assay, as described previously. Briefly, cells stably expressing the hA1, hA2A, and hA2B ARs and the biosensor were incubated for 2 h at rt in equilibration medium containing 3% v/v GloSensor cAMP reagent stock solution, 10% FBS, and 87% CO2 independent medium. Afterward, cells were dispensed in the wells of a 384-well plate and the reference agonist NECA or the compounds, at different concentrations, were tested. The antagonist profile of compounds was evaluated by assessing their ability to counteract NECA-induced increase (A2A and A2B ARs) or decrease (A1 AR) of cAMP accumulation. Responses were expressed as percentage of the maximal relative luminescence units (RLU).
as §1

[6] = displacement of specific [3H]-NECA binding, CHO cells, mean ± SEM, read-out: hA2A Ki
[7] = hA2A AR, as listed in Table 3, read-out: pKi A2A (converted)

T2 sequence (P29274 whole entry): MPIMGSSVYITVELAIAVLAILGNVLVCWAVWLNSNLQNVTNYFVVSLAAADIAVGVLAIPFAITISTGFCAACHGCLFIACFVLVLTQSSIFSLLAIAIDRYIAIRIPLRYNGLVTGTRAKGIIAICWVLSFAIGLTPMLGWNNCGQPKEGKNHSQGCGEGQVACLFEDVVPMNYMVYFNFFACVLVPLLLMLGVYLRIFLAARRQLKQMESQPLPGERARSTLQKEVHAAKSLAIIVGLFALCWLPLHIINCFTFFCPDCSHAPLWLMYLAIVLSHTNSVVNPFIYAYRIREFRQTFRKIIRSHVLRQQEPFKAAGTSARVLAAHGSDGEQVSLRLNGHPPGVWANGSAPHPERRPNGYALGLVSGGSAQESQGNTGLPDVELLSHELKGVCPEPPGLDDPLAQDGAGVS
T5 sequence (P29274 whole entry): as above

| Ki [1] | Ki [2, 6] | Ki [2, 7] | Ki [3] | IC50 [4] | IC50 [5] | SMILES |
| --- | --- | --- | --- | --- | --- | --- |
| 20 ± 4.3 nM | 2.9 ± 0.04 nM | 2.82 nM | 26.6 ± 6 nM | > 30000 nM | – | Nc1nc(-c2ccccc2)nc2sc(Cc3ccccc3)nc12 [compound 1, 2-Benzyl-5-phenylthiazolo[5,4-d]pyrimidin-7-amine] |
| 51.7 ± 11.7 nM | 4.6 ± 0.9 nM | – | 76 ± 0.9 nM | > 30000 nM | – | N#Cc1cccc(-c2nc(N)c3nc(Cc4ccccc4)sc3n2)c1 [compound 2, 3-(7-Amino-2-benzylthiazolo[5,4-d]pyrimidin-5-yl)benzonitrile] |
| 15.7 ± 3.4 nM | 7.3 ± 1 nM | – | 104 ± 21.1 nM | > 30000 nM | – | Nc1nc(-c2cccc(O)c2)nc2sc(Cc3ccccc3)nc12 [compound 3, 3-(7-Amino-2-benzylthiazolo[5,4-d]pyrimidin-5-yl)phenol] |
| 15.5 ± 3.6 nM | 1.1 ± 0.2 nM | 1.1 nM | 65.4 ± 12 nM | 794 ± 196 nM | – | Nc1nc(-c2ccco2)nc2sc(Cc3ccccc3)nc12 [compound 4, 2-Benzyl-5-(furan-2-yl)thiazolo[5,4-d]pyrimidin-7-amine] |
| 6.8 ± 1.2 nM | 0.8 ± 0.04 nM | 0.794 nM | 18.8 ± 1.9 nM | 1100 ± 228 nM | 88 ± 21 nM | Cc1ccc(-c2nc(N)c3nc(Cc4ccccc4)sc3n2)o1 [compound 5, 2-Benzyl-5-(5-methylfuran-2-yl)thiazolo[5,4-d]pyrimidin-7-amine] |
| 2.8 ± 0.05 nM | 0.4 ± 0.04 nM | 0.398 nM | 143 ± 0.2 nM | > 30000 nM | – | Nc1nc(-c2ccccc2)nc2sc(Cc3ccccc3Cl)nc12 [compound 6, 2-(2-Chlorobenzyl)-5-phenylthiazolo[5,4-d]pyrimidin-7-amine] |
| 72.8 ± 15 nM | 6.3 ± 0.18 nM | – | 295.1 ± 0.6 nM | 6785 ± 62 nM | – | N#Cc1cccc(-c2nc(N)c3nc(Cc4ccccc4Cl)sc3n2)c1 [compound 7, 3-(7-Amino-2-(2-chlorobenzyl)thiazolo[5,4-d]pyrimidin-5-yl)benzonitrile] |
| 3.8 ± 0.6 nM | 0.2 ± 0.03 nM | 0.2 nM | 4786 ± 5.1 nM | 1890 ± 175 nM | 39 ± 9 nM | Nc1nc(-c2ccco2)nc2sc(Cc3ccccc3Cl)nc12 [compound 8, 2-(2-Chlorobenzyl)-5-(furan-2-yl)thiazolo[5,4-d]pyrimidin-7-amine] |
| 0.5 ± 0.1 nM | 0.07 ± 0.006 nM | 0.0708 nM | 8.5 ± 1.6 nM | 8850 ± 1450 nM | 7.7 ± 1.3 nM | Cc1ccc(-c2nc(N)c3nc(Cc4ccccc4Cl)sc3n2)o1 [compound 9, 2-(2-Chlorobenzyl)-5-(5-methylfuran-2-yl)thiazolo[5,4-d]pyrimidin-7-amine] |
| 4.5 ± 0.8 nM | 0.7 ± 0.1 nM | – | 37.4 ± 1 nM | > 30000 nM | 125 ± 33 nM | COc1ccccc1Cc1nc2c(N)nc(-c3ccccc3)nc2s1 [compound 10, 2-(2-Methoxybenzyl)-5-phenylthiazolo[5,4-d]pyrimidin-7-amine] |
| 28.4 ± 4 nM | 2.4 ± 0.09 nM | – | 54.2 ± 1.2 nM | 1540 ± 35 nM | – | COc1ccccc1Cc1nc2c(N)nc(-c3cccc(C#N)c3)nc2s1 [compound 11, 3-(7-Amino-2-(2-methoxybenzyl)thiazolo[5,4-d]pyrimidin-5-yl)benzonitrile] |
| 10.2 ± 0.3 nM | 1.9 ± 0.4 nM | – | 79.6 ± 2.3 nM | 7420 ± 876 nM | – | COc1ccccc1Cc1nc2c(N)nc(-c3cccc(O)c3)nc2s1 [compound 12, 3-(7-Amino-2-(2-methoxybenzyl)thiazolo[5,4-d]pyrimidin-5-yl)phenol] |
| 2.4 ± 0.1 nM | 0.2 ± 0.03 nM | – | 48.6 ± 2.4 nM | 1540 ± 35 nM | 35 ± 8.5 nM | COc1ccccc1Cc1nc2c(N)nc(-c3ccco3)nc2s1 [compound 13, 5-(Furan-2-yl)-2-(2-methoxybenzyl)thiazolo[5,4-d]pyrimidin-7-amine] |
| 11.5 ± 2.8 nM | 2 ± 0.6 nM | – | 18.2 ± 5 nM | 2420 ± 545 nM | – | COc1ccccc1Cc1nc2c(N)nc(-c3ccc(C)o3)nc2s1 [compound 14, 2-(2-Methoxybenzyl)-5-(5-methylfuran-2-yl)thiazolo[5,4-d]pyrimidin-7-amine] |
| 1.9 ± 0.05 nM | 1.8 ± 0.6 nM | 1.78 nM | 72.1 ± 5.3 nM | > 30000 nM | – | Nc1nc(-c2ccccc2)nc2sc(Cc3ccccc3F)nc12 [compound 15, 2-(2-Fluorobenzyl)-5-phenylthiazolo[5,4-d]pyrimidin-7-amine] |
| 21.5 ± 5.1 nM | 1.4 ± 0.3 nM | – | 95.5 ± 1.5 nM | 1510 ± 121 nM | – | N#Cc1cccc(-c2nc(N)c3nc(Cc4ccccc4F)sc3n2)c1 [compound 16, 3-(7-Amino-2-(2-fluorobenzyl)thiazolo[5,4-d]pyrimidin-5-yl)benzonitrile] |
| 0.5 ± 0.1 nM | – | – | 456 ± 15 nM | 3240 ± 136 nM | – | Nc1nc(-c2cccc(O)c2)nc2sc(Cc3ccccc3F)nc12 [compound 17, 3-(7-Amino-2-(2-fluorobenzyl)thiazolo[5,4-d]pyrimidin-5-yl)phenol] |
| 5.7 ± 0.2 nM | 0.26 ± 0.01 nM | 0.257 nM | 50.2 ± 9.2 nM | 1690 ± 228 nM | 51 ± 12 nM | Cc1ccc(-c2nc(N)c3nc(Cc4ccccc4F)sc3n2)o1 [compound 19, 2-(2-Fluorobenzyl)-5-(5-methylfuran-2-yl)thiazolo[5,4-d]pyrimidin-7-amine] |

Source: article PMC8308585, “Design and Synthesis of Novel Thiazolo[5,4-d]pyrimidine Derivatives with High Affinity for Both the Adenosine A1 and A2A Receptors, and Efficacy in Animal Models of Depression” (Pharmaceuticals, 2021)
